Results published in PubChem BioAssay (NCI).
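Five compound concentrations were applied to cells in 96-well plates for 48 hours; endpoints were derived by simple linear interpolation of the resulting dose-response curve. GI50: concentration for 50% inhibition of growth. TGI is the concentration that stops growth completely.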 Active and inactive are the calls of the source. Cut-off read from the data, not from the text of the source: active = GI50 below about 0.43 µM; inactive = the rest.

Legend:
Experiment in all cases: NCI tumour cell line growth inhibition, 48 h
MDA-MB-435 = tested on: MDA-MB-435
SNB-75 CNS = tested on: SNB-75 CNS
MALME-3M melanoma = tested on: MALME-3M melanoma
HCT-15 colon = tested on: HCT-15 colon
CCRF-CEM leukemia = tested on: CCRF-CEM leukemia
SW-620 colon = tested on: SW-620 colon
DU-145 prostate = tested on: DU-145 prostate
MDA-MB-231 breast = tested on: MDA-MB-231 breast
HCC-2998 colon = tested on: HCC-2998 colon
DMS 114 small cell lung = tested on: DMS 114 small cell lung
HT29 colon = tested on: HT29 colon
OVCAR-8 ovarian = tested on: OVCAR-8 ovarian
MCF7 breast = tested on: MCF7 breast
A549 NSCLC = tested on: A549 NSCLC
CAKI-1 renal = tested on: CAKI-1 renal
OVCAR-5 ovarian = tested on: OVCAR-5 ovarian
BT-549 breast = tested on: BT-549 breast
NCI-H460 lung = tested on: NCI-H460 lung
UO-31 renal = tested on: UO-31 renal
LOX IMVI melanoma = tested on: LOX IMVI melanoma
SF-295 CNS = tested on: SF-295 CNS
SNB-19 CNS = tested on: SNB-19 CNS
KM12 colon = tested on: KM12 colon
RPMI-8226 leukemia = tested on: RPMI-8226 leukemia
SR leukemia = tested on: SR leukemia
DMS 273 small cell lung = tested on: DMS 273 small cell lung
DLD-1 colon = tested on: DLD-1 colon
HL-60(TB) leukemia = tested on: HL-60(TB) leukemia
SK-MEL-5 melanoma = tested on: SK-MEL-5 melanoma
SK-OV-3 ovarian = tested on: SK-OV-3 ovarian
U251 CNS = tested on: U251 CNS
SNB-78 CNS = tested on: SNB-78 CNS
TK-10 renal = tested on: TK-10 renal
NCI-H522 lung = tested on: NCI-H522 lung
SF-539 CNS = tested on: SF-539 CNS
M19-MEL melanoma = tested on: M19-MEL melanoma
HOP-62 NSCLC = tested on: HOP-62 NSCLC
SF-268 CNS = tested on: SF-268 CNS
EKVX NSCLC = tested on: EKVX NSCLC
COLO 205 colon = tested on: COLO 205 colon
HS 578T breast = tested on: HS 578T breast
K-562 leukemia = tested on: K-562 leukemia
UACC-62 melanoma = tested on: UACC-62 melanoma
LXFL 529 NSCLC = tested on: LXFL 529 NSCLC
OVCAR-4 ovarian = tested on: OVCAR-4 ovarian
M14 melanoma = tested on: M14 melanoma
IGROV1 ovarian = tested on: IGROV1 ovarian
SK-MEL-28 melanoma = tested on: SK-MEL-28 melanoma
MOLT-4 leukemia = tested on: MOLT-4 leukemia

**Q.** What does the source list for C[CH2][Sn]([CH2]C)([O]C(=O)c1ccccc1F)[O]C(=O)c1ccccc1F?
**A.** GI50 (MDA-MB-435): > 100 µM; TGI (MDA-MB-435): > 100 µM; GI50 (SNB-75 CNS): 21.7 µM; TGI (SNB-75 CNS): > 53.4 µM; GI50 (MALME-3M melanoma): 16.5 µM; TGI (MALME-3M melanoma): 31.4 µM; GI50 (HCT-15 colon): 29 µM; TGI (HCT-15 colon): > 67.7 µM; GI50 (CCRF-CEM leukemia): 8.77 µM; TGI (CCRF-CEM leukemia): 35.6 µM; GI50 (SW-620 colon): 28.3 µM; TGI (SW-620 colon): 73.7 µM; GI50 (DU-145 prostate): > 100 µM; TGI (DU-145 prostate): > 100 µM; GI50 (MDA-MB-231 breast): > 100 µM; TGI (MDA-MB-231 breast): > 100 µM; GI50 (HCC-2998 colon): > 100 µM; TGI (HCC-2998 colon): > 100 µM; GI50 (DMS 114 small cell lung): 20.4 µM; TGI (DMS 114 small cell lung): 43.1 µM; GI50 (HT29 colon): 59.2 µM; TGI (HT29 colon): > 100 µM; GI50 (OVCAR-8 ovarian): > 70.5 µM; TGI (OVCAR-8 ovarian): > 100 µM; GI50 (MCF7 breast): 27.4 µM; TGI (MCF7 breast): 80.6 µM; GI50 (A549 NSCLC): > 100 µM; TGI (A549 NSCLC): > 100 µM; GI50 (CAKI-1 renal): 11.9 µM; TGI (CAKI-1 renal): 19.6 µM; GI50 (OVCAR-5 ovarian): > 97.4 µM; TGI (OVCAR-5 ovarian): > 100 µM; GI50 (BT-549 breast): 18.1 µM; TGI (BT-549 breast): 35.8 µM; GI50 (NCI-H460 lung): > 100 µM; TGI (NCI-H460 lung): > 100 µM; GI50 (UO-31 renal): > 55.2 µM; TGI (UO-31 renal): > 67.3 µM; GI50 (LOX IMVI melanoma): 19.2 µM; TGI (LOX IMVI melanoma): 40.8 µM; GI50 (SF-295 CNS): > 62 µM; TGI (SF-295 CNS): > 84.6 µM; GI50 (SNB-19 CNS): 36.6 µM; TGI (SNB-19 CNS): 60.6 µM; GI50 (KM12 colon): > 100 µM; TGI (KM12 colon): > 100 µM; GI50 (RPMI-8226 leukemia): 17.2 µM; TGI (RPMI-8226 leukemia): 45.7 µM; GI50 (SR leukemia): 22.6 µM; TGI (SR leukemia): > 100 µM; GI50 (DMS 273 small cell lung): > 67 µM; TGI (DMS 273 small cell lung): > 100 µM; GI50 (DLD-1 colon): 29.8 µM; TGI (DLD-1 colon): > 91.3 µM; GI50 (HL-60(TB) leukemia): > 45.2 µM; TGI (HL-60(TB) leukemia): > 100 µM; GI50 (SK-MEL-5 melanoma): 50.2 µM; TGI (SK-MEL-5 melanoma): > 100 µM; GI50 (SK-OV-3 ovarian): > 100 µM; TGI (SK-OV-3 ovarian): > 100 µM; GI50 (U251 CNS): 47.4 µM; TGI (U251 CNS): > 85.1 µM; GI50 (SNB-78 CNS): 20.6 µM; TGI (SNB-78 CNS): 39 µM; GI50 (TK-10 renal): 18.1 µM; TGI (TK-10 renal): 33.4 µM; GI50 (NCI-H522 lung): 2.1 µM; TGI (NCI-H522 lung): 6.84 µM; GI50 (SF-539 CNS): 23.2 µM; TGI (SF-539 CNS): 29.4 µM; GI50 (M19-MEL melanoma): 29.8 µM; TGI (M19-MEL melanoma): > 77.2 µM; GI50 (HOP-62 NSCLC): > 100 µM; TGI (HOP-62 NSCLC): > 100 µM; GI50 (SF-268 CNS): 32.1 µM; TGI (SF-268 CNS): 50.8 µM; GI50 (EKVX NSCLC): > 100 µM; TGI (EKVX NSCLC): > 100 µM; GI50 (COLO 205 colon): 38.8 µM; TGI (COLO 205 colon): 62.3 µM; GI50 (HS 578T breast): 42.2 µM; TGI (HS 578T breast): > 100 µM; GI50 (K-562 leukemia): 16.2 µM; TGI (K-562 leukemia): 55.1 µM; GI50 (UACC-62 melanoma): 27.2 µM; TGI (UACC-62 melanoma): 52.4 µM; GI50 (LXFL 529 NSCLC): 11.1 µM; TGI (LXFL 529 NSCLC): 24.2 µM; GI50 (OVCAR-4 ovarian): > 100 µM; TGI (OVCAR-4 ovarian): > 100 µM; GI50 (M14 melanoma): 30.4 µM; TGI (M14 melanoma): 56.8 µM; GI50 (IGROV1 ovarian): > 100 µM; TGI (IGROV1 ovarian): > 100 µM; GI50 (SK-MEL-28 melanoma): 29.1 µM; TGI (SK-MEL-28 melanoma): 47.6 µM; GI50 (MOLT-4 leukemia): 28.8 µM; TGI (MOLT-4 leukemia): > 91 µM

**Q.** What does the source list for C=CC(=O)C#CC#CC/C=C\CCCCCCC?
**A.** TGI (MDA-MB-435): > 20.6 µM; outcome (MDA-MB-435): inactive; TGI (SNB-75 CNS): > 20.6 µM; outcome (SNB-75 CNS): inactive; TGI (MALME-3M melanoma): > 20.6 µM; outcome (MALME-3M melanoma): inactive; TGI (HCT-15 colon): > 20.6 µM; outcome (HCT-15 colon): inactive; TGI (CCRF-CEM leukemia): > 17.3 µM; outcome (CCRF-CEM leukemia): inactive; TGI (SW-620 colon): > 20.6 µM; outcome (SW-620 colon): inactive; TGI (DU-145 prostate): > 20.6 µM; outcome (DU-145 prostate): inactive; TGI (MDA-MB-231 breast): > 20.6 µM; outcome (MDA-MB-231 breast): inactive; TGI (HCC-2998 colon): > 20.6 µM; outcome (HCC-2998 colon): inactive; TGI (DMS 114 small cell lung): > 20.6 µM; TGI (HT29 colon): > 20.6 µM; outcome (HT29 colon): inactive; TGI (OVCAR-8 ovarian): > 20.6 µM; outcome (OVCAR-8 ovarian): inactive; TGI (MCF7 breast): > 20.6 µM; outcome (MCF7 breast): inactive; TGI (A549 NSCLC): > 20.6 µM; outcome (A549 NSCLC): inactive; TGI (CAKI-1 renal): > 20.6 µM; outcome (CAKI-1 renal): inactive; TGI (OVCAR-5 ovarian): > 20.6 µM; outcome (OVCAR-5 ovarian): inactive; TGI (BT-549 breast): > 20.6 µM; TGI (NCI-H460 lung): > 20.6 µM; outcome (NCI-H460 lung): inactive; TGI (UO-31 renal): > 20.6 µM; outcome (UO-31 renal): inactive; TGI (LOX IMVI melanoma): > 20.6 µM; outcome (LOX IMVI melanoma): inactive; TGI (SF-295 CNS): > 20.6 µM; outcome (SF-295 CNS): inactive; TGI (SNB-19 CNS): > 20.6 µM; outcome (SNB-19 CNS): inactive; TGI (KM12 colon): > 20.6 µM; outcome (KM12 colon): inactive; TGI (RPMI-8226 leukemia): > 18.6 µM; outcome (RPMI-8226 leukemia): inactive; TGI (SR leukemia): 14.2 µM; outcome (SR leukemia): inactive; TGI (DMS 273 small cell lung): > 20.6 µM; TGI (DLD-1 colon): > 20.6 µM; TGI (HL-60(TB) leukemia): > 20.6 µM; outcome (HL-60(TB) leukemia): inactive; TGI (SK-MEL-5 melanoma): > 20.6 µM; outcome (SK-MEL-5 melanoma): inactive; TGI (SK-OV-3 ovarian): > 20.6 µM; outcome (SK-OV-3 ovarian): inactive; TGI (U251 CNS): > 20.6 µM; outcome (U251 CNS): inactive; TGI (SNB-78 CNS): > 20.6 µM; TGI (TK-10 renal): > 20.6 µM; outcome (TK-10 renal): inactive; TGI (NCI-H522 lung): > 20.6 µM; outcome (NCI-H522 lung): inactive; TGI (SF-539 CNS): > 20.6 µM; outcome (SF-539 CNS): inactive; TGI (M19-MEL melanoma): > 20.6 µM; TGI (HOP-62 NSCLC): > 20.6 µM; outcome (HOP-62 NSCLC): inactive; TGI (SF-268 CNS): > 20.6 µM; outcome (SF-268 CNS): inactive; TGI (EKVX NSCLC): > 20.6 µM; outcome (EKVX NSCLC): inactive; TGI (COLO 205 colon): > 20.6 µM; outcome (COLO 205 colon): inactive; TGI (HS 578T breast): > 20.6 µM; outcome (HS 578T breast): inactive; TGI (K-562 leukemia): > 20.6 µM; outcome (K-562 leukemia): inactive; TGI (UACC-62 melanoma): > 20.6 µM; outcome (UACC-62 melanoma): inactive; TGI (LXFL 529 NSCLC): > 20.6 µM; TGI (OVCAR-4 ovarian): > 20.6 µM; outcome (OVCAR-4 ovarian): inactive; TGI (M14 melanoma): > 20.6 µM; outcome (M14 melanoma): inactive; TGI (IGROV1 ovarian): > 6.51 µM; outcome (IGROV1 ovarian): inactive; TGI (SK-MEL-28 melanoma): > 20.6 µM; outcome (SK-MEL-28 melanoma): inactive; TGI (MOLT-4 leukemia): 12.3 µM; outcome (MOLT-4 leukemia): inactive
